Measurements reported in the kinase profiling compilation of Christmann-Franck et al. (2016).

Tests used:
Test in all cases: KINOMEscan competition binding
PAK7 (human) = PAK7 (human) (UniProt Q9P286); conditions: compound 1.0 µM
MAPKAPK2 (human) = MAPKAPK2 (human) (UniProt P49137); conditions: compound 1.0 µM
MARK3 (human) = MARK3 (human) (UniProt P27448); conditions: compound 1.0 µM
CDK14 (human) = CDK14 (human) (UniProt O94921); conditions: compound 1.0 µM
NTRK1 (human) = NTRK1 (human) (UniProt P04629); conditions: compound 1.0 µM
ERN1 (human) = ERN1 (human) (UniProt O75460); conditions: compound 1.0 µM
RIPK1 (human) = RIPK1 (human) (UniProt Q13546); conditions: compound 1.0 µM
DSTYK (human) = DSTYK (human) (UniProt Q6XUX3); conditions: compound 1.0 µM
PIK3CA (human) = PIK3CA (human) (UniProt P42336); conditions: compound 1.0 µM
CIT (human) = CIT (human) (UniProt O14578); conditions: for kinase still bound, per cent of control: compound 1.0 µM
FGR (human) = FGR (human) (UniProt P09769); conditions: compound 1.0 µM
RPS6KA1 KD2 (human) = RPS6KA1 KD2 (human) (UniProt Q15418); conditions: compound 1.0 µM
CDKL5 (human) = CDKL5 (human) (UniProt O76039); conditions: compound 1.0 µM
[1] = tested on: PIK3CA (human), P42336 [H1047L]; conditions: compound 1.0 µM
MAPK1 (human) = MAPK1 (human) (UniProt P28482); conditions: compound 1.0 µM
GAK (human) = GAK (human) (UniProt O14976); conditions: compound 1.0 µM
MYLK2 (human) = MYLK2 (human) (UniProt Q9H1R3); conditions: compound 1.0 µM
NEK11 (human) = NEK11 (human) (UniProt Q8NG66); conditions: compound 1.0 µM
Chain of NEK11 (human) (Q8NG66 whole entry, looked up): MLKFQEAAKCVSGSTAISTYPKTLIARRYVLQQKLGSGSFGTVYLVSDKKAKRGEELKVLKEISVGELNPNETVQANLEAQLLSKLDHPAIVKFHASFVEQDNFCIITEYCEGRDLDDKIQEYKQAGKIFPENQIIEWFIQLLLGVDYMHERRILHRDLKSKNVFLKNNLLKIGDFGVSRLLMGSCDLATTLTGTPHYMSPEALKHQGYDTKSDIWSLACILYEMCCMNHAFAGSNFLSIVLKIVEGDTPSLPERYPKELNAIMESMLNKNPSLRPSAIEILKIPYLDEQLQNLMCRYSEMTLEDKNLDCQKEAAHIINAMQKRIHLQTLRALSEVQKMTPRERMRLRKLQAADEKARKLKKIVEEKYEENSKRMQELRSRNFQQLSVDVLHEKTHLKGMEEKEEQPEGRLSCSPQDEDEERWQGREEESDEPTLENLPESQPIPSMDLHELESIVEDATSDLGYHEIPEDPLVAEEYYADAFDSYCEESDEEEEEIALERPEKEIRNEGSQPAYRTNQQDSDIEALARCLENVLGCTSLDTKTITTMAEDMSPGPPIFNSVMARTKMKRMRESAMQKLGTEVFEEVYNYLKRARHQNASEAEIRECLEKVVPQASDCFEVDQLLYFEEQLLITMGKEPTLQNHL

IRAK1 (human) = IRAK1 (human) (UniProt P51617); conditions: compound 1.0 µM
ACVR2A (human) = ACVR2A (human) (UniProt P27037); conditions: compound 1.0 µM
EPHA3 (human) = EPHA3 (human) (UniProt P29320); conditions: compound 1.0 µM
Chain of EPHA3 (human) (P29320 whole entry, looked up): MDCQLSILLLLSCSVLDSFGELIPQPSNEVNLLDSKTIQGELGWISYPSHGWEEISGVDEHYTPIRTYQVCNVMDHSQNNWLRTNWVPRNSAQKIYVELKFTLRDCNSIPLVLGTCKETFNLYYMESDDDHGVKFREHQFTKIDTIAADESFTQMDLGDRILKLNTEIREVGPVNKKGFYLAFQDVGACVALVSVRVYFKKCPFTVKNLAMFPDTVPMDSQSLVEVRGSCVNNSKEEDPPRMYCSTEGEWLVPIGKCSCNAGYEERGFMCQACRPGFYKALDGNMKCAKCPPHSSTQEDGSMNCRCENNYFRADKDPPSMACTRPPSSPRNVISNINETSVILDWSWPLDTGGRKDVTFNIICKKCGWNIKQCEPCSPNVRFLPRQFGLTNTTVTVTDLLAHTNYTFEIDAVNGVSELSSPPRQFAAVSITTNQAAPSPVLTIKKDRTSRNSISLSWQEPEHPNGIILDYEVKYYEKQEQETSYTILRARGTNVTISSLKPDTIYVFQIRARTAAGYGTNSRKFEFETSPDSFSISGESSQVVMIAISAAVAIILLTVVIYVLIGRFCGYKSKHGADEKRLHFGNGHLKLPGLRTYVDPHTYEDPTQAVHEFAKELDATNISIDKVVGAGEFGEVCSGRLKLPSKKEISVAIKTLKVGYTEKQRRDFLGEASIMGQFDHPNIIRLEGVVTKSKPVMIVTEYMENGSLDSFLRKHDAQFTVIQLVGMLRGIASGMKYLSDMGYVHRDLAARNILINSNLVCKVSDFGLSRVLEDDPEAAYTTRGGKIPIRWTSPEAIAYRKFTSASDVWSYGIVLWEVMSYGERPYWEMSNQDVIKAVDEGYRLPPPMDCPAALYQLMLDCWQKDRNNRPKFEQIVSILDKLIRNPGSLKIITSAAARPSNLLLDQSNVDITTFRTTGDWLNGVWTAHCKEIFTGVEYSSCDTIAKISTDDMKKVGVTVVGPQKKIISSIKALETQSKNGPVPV

PRKD1 (human) = PRKD1 (human) (UniProt Q15139); conditions: compound 1.0 µM
CLK4 (human) = CLK4 (human) (UniProt Q9HAZ1); conditions: compound 1.0 µM
[2] = tested on: EGFR (human), P00533 [P753S; 747-752 del]; conditions: compound 1.0 µM
CSF1R (human) = CSF1R (human) (UniProt P07333); conditions: compound 1.0 µM
RIPK2 (human) = RIPK2 (human) (UniProt O43353); conditions: compound 1.0 µM
INSRR (human) = INSRR (human) (UniProt P14616); conditions: compound 1.0 µM
STK32A (human) = STK32A (human) (UniProt Q8WU08); conditions: compound 1.0 µM
Chain of STK32A (human) (Q8WU08 whole entry, looked up): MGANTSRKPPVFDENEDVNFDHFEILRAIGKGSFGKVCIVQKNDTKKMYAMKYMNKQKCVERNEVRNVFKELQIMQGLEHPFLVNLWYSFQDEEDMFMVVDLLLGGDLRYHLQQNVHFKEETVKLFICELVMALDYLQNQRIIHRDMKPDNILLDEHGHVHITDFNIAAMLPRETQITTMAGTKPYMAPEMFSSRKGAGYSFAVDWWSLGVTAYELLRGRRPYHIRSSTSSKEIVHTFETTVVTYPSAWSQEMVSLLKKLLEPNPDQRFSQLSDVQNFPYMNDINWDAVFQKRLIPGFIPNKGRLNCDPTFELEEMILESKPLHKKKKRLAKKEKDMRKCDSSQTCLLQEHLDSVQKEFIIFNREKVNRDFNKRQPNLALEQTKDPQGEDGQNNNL

[3] = tested on: FLT3 (human), P36888 [N841I]; conditions: compound 1.0 µM
PHKG2 (human) = PHKG2 (human) (UniProt P15735); conditions: compound 1.0 µM
EPHB3 (human) = EPHB3 (human) (UniProt P54753); conditions: compound 1.0 µM
TGFBR2 (human) = TGFBR2 (human) (UniProt P37173); conditions: compound 1.0 µM
RIOK1 (human) = RIOK1 (human) (UniProt Q9BRS2); conditions: compound 1.0 µM
[4] = tested on: RET (human), P07949 [M918T]; conditions: compound 1.0 µM
Chain of RET (human), P07949 [M918T] (P07949 whole entry M918T, looked up): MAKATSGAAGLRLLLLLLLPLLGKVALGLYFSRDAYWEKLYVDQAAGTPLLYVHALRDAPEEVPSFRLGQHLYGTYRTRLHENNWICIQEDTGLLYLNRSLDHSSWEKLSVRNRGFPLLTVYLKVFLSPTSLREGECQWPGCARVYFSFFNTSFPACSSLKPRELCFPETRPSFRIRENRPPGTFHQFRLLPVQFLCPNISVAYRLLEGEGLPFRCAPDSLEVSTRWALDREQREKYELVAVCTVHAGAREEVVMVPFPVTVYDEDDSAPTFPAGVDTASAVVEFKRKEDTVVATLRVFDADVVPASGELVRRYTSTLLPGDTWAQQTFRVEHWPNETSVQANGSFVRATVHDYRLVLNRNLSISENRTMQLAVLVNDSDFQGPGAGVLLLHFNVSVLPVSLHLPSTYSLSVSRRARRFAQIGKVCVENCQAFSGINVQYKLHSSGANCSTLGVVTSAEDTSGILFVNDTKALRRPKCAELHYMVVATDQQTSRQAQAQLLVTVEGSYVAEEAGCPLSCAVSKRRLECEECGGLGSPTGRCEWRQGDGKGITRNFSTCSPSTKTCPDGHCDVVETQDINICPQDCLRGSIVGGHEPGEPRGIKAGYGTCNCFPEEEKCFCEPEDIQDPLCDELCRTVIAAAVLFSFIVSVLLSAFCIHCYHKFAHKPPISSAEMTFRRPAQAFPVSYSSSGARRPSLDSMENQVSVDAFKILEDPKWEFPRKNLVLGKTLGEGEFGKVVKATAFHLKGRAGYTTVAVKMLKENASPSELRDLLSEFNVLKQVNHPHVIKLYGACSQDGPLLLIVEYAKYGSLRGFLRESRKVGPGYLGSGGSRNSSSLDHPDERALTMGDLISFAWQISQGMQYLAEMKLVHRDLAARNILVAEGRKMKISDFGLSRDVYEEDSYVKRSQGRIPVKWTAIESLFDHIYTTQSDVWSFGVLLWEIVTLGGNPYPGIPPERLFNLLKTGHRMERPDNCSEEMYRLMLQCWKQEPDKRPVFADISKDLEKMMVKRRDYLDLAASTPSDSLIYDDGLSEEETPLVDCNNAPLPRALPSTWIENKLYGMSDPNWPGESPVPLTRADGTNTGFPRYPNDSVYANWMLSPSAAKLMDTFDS

[5] = tested on: EGFR (human), P00533 [G719S]; conditions: compound 1.0 µM
GRK1 (human) = GRK1 (human) (UniProt Q15835); conditions: compound 1.0 µM
PRPF4B (human) = PRPF4B (human) (UniProt Q13523); conditions: compound 1.0 µM
[6] = tested on: PIK3CA (human), P42336 [E545A]; conditions: compound 1.0 µM
MAPK8 (human) = MAPK8 (human) (UniProt P45983); conditions: compound 1.0 µM
[7] = tested on: EGFR (human), P00533 [T790M]; conditions: compound 1.0 µM
FLT3 (human) = FLT3 (human) (UniProt P36888); conditions: compound 1.0 µM
NLK (human) = NLK (human) (UniProt Q9UBE8); conditions: compound 1.0 µM

Chain of CDK14 (human) (O94921 whole entry, looked up): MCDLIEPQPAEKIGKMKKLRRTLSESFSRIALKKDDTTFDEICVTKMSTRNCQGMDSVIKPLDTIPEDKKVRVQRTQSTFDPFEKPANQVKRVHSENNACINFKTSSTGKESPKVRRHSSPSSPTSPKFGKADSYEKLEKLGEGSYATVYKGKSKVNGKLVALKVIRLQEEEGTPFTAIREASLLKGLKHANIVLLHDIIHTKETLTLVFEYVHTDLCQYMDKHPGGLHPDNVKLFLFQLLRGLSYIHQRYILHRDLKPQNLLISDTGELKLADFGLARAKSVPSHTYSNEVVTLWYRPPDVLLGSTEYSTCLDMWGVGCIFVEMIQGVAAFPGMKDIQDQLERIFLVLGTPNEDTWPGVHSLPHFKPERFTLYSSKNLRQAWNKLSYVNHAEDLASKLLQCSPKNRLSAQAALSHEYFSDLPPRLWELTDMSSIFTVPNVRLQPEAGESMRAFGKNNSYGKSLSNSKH
Chain of PAK7 (human) (Q9P286 whole entry, looked up): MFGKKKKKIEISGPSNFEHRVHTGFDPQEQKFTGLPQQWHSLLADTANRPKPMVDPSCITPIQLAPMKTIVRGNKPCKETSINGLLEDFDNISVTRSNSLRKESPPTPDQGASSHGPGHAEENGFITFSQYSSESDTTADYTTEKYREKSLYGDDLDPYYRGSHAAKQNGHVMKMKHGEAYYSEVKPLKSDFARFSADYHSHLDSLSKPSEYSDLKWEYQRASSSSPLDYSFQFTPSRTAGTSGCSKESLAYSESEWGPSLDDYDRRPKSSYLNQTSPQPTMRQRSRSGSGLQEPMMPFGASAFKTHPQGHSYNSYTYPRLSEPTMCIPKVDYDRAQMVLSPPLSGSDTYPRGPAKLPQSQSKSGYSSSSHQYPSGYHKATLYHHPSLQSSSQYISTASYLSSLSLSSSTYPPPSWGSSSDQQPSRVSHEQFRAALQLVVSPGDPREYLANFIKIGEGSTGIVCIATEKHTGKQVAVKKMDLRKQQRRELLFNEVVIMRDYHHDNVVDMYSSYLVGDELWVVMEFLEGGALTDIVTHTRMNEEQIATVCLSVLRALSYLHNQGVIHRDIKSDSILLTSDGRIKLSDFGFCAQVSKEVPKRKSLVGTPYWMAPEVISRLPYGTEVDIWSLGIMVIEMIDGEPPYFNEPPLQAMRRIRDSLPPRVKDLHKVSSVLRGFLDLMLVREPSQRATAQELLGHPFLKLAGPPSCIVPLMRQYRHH
Chain of MAPKAPK2 (human) (P49137 whole entry, looked up): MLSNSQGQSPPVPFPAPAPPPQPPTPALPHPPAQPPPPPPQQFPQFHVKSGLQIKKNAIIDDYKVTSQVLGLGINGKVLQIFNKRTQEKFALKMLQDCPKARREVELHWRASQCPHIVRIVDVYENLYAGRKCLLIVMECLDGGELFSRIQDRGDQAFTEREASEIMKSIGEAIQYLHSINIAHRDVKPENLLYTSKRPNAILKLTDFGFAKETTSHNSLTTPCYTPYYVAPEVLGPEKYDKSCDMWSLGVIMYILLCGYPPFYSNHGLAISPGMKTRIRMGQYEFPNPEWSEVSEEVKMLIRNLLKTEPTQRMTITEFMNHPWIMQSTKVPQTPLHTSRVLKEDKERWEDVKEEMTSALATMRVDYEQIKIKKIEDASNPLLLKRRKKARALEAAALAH

## CN(C)C/C=C/C(=O)Nc1cccc(C(=O)Nc2ccc(Nc3nccc(-c4c(-c5ccccc5)nn5ccccc45)n3)cc2)c1
PAK7 (human)
  kinase still bound, per cent of control: 92%
MAPKAPK2 (human)
  kinase still bound, per cent of control: 84%
MARK3 (human)
  kinase still bound, per cent of control: 75%
CDK14 (human)
  kinase still bound, per cent of control: 100%
NTRK1 (human)
  kinase still bound, per cent of control: 30%
ERN1 (human)
  kinase still bound, per cent of control: 100%
RIPK1 (human)
  kinase still bound, per cent of control: 73%
DSTYK (human)
  kinase still bound, per cent of control: 80%
PIK3CA (human)
  kinase still bound, per cent of control: 99%
CIT (human)
  Kd: 95 nM
  kinase still bound, per cent of control: 0.3%
FGR (human)
  kinase still bound, per cent of control: 10%
RPS6KA1 KD2 (human)
  kinase still bound, per cent of control: 36%
CDKL5 (human)
  kinase still bound, per cent of control: 100%
[1]
  kinase still bound, per cent of control: 77%
MAPK1 (human)
  kinase still bound, per cent of control: 100%
GAK (human)
  kinase still bound, per cent of control: 2.4%
MYLK2 (human)
  kinase still bound, per cent of control: 100%
NEK11 (human)
  kinase still bound, per cent of control: 100%
IRAK1 (human)
  kinase still bound, per cent of control: 2%
ACVR2A (human)
  kinase still bound, per cent of control: 5.1%
EPHA3 (human)
  kinase still bound, per cent of control: 65%
PRKD1 (human)
  kinase still bound, per cent of control: 20%
CLK4 (human)
  kinase still bound, per cent of control: 100%
[2]
  kinase still bound, per cent of control: 7%
CSF1R (human)
  kinase still bound, per cent of control: 6%
RIPK2 (human)
  kinase still bound, per cent of control: 12%
INSRR (human)
  kinase still bound, per cent of control: 97%
STK32A (human)
  kinase still bound, per cent of control: 35%
[3]
  kinase still bound, per cent of control: 4%
PHKG2 (human)
  kinase still bound, per cent of control: 100%
EPHB3 (human)
  kinase still bound, per cent of control: 86%
TGFBR2 (human)
  kinase still bound, per cent of control: 10%
RIOK1 (human)
  kinase still bound, per cent of control: 100%
[4]
  kinase still bound, per cent of control: 10%
[5]
  kinase still bound, per cent of control: 1.8%
GRK1 (human)
  kinase still bound, per cent of control: 100%
PRPF4B (human)
  kinase still bound, per cent of control: 100%
[6]
  kinase still bound, per cent of control: 100%
MAPK8 (human)
  kinase still bound, per cent of control: 0%
[7]
  kinase still bound, per cent of control: 11%
FLT3 (human)
  kinase still bound, per cent of control: 1%
NLK (human)
  kinase still bound, per cent of control: 12%

## CN(C)C/C=C/C(=O)Nc1cccc(C(=O)Nc2ccc(Nc3nccc(/C(C#N)=C4\Nc5ccccc5S4)n3)cc2)c1
PAK7 (human)
  kinase still bound, per cent of control: 69%
MAPKAPK2 (human)
  kinase still bound, per cent of control: 92%
MARK3 (human)
  kinase still bound, per cent of control: 100%
CDK14 (human)
  kinase still bound, per cent of control: 100%
NTRK1 (human)
  kinase still bound, per cent of control: 100%
ERN1 (human)
  kinase still bound, per cent of control: 100%
RIPK1 (human)
  kinase still bound, per cent of control: 85%
DSTYK (human)
  kinase still bound, per cent of control: 100%
PIK3CA (human)
  kinase still bound, per cent of control: 64%
CIT (human)
  kinase still bound, per cent of control: 65%
FGR (human)
  kinase still bound, per cent of control: 100%
RPS6KA1 KD2 (human)
  kinase still bound, per cent of control: 100%
CDKL5 (human)
  kinase still bound, per cent of control: 21%
[1]
  kinase still bound, per cent of control: 100%
MAPK1 (human)
  kinase still bound, per cent of control: 100%
GAK (human)
  kinase still bound, per cent of control: 79%
MYLK2 (human)
  kinase still bound, per cent of control: 100%
NEK11 (human)
  kinase still bound, per cent of control: 100%
IRAK1 (human)
  kinase still bound, per cent of control: 1.2%
ACVR2A (human)
  kinase still bound, per cent of control: 79%
EPHA3 (human)
  kinase still bound, per cent of control: 100%
PRKD1 (human)
  kinase still bound, per cent of control: 100%
CLK4 (human)
  kinase still bound, per cent of control: 64%
[2]
  kinase still bound, per cent of control: 100%
CSF1R (human)
  kinase still bound, per cent of control: 82%
RIPK2 (human)
  kinase still bound, per cent of control: 100%
INSRR (human)
  kinase still bound, per cent of control: 87%
STK32A (human)
  kinase still bound, per cent of control: 100%
[3]
  kinase still bound, per cent of control: 51%
PHKG2 (human)
  kinase still bound, per cent of control: 100%
EPHB3 (human)
  kinase still bound, per cent of control: 95%
TGFBR2 (human)
  kinase still bound, per cent of control: 100%
RIOK1 (human)
  kinase still bound, per cent of control: 14%
[4]
  kinase still bound, per cent of control: 17%
[5]
  kinase still bound, per cent of control: 100%
GRK1 (human)
  kinase still bound, per cent of control: 100%
PRPF4B (human)
  kinase still bound, per cent of control: 100%
[6]
  kinase still bound, per cent of control: 100%
MAPK8 (human)
  kinase still bound, per cent of control: 0%
[7]
  kinase still bound, per cent of control: 80%
FLT3 (human)
  kinase still bound, per cent of control: 23%
NLK (human)
  kinase still bound, per cent of control: 100%

## Cc1cc(NC(=O)c2cccc(NC(=O)/C=C/CN(C)C)c2)ccc1Nc1nccc(-c2cccnc2)n1
PAK7 (human)
  kinase still bound, per cent of control: 88%
MAPKAPK2 (human)
  kinase still bound, per cent of control: 100%
MARK3 (human)
  kinase still bound, per cent of control: 100%
CDK14 (human)
  kinase still bound, per cent of control: 88%
NTRK1 (human)
  kinase still bound, per cent of control: 87%
ERN1 (human)
  kinase still bound, per cent of control: 73%
RIPK1 (human)
  kinase still bound, per cent of control: 51%
DSTYK (human)
  kinase still bound, per cent of control: 100%
PIK3CA (human)
  kinase still bound, per cent of control: 100%
CIT (human)
  kinase still bound, per cent of control: 100%
FGR (human)
  kinase still bound, per cent of control: 100%
RPS6KA1 KD2 (human)
  kinase still bound, per cent of control: 88%
CDKL5 (human)
  kinase still bound, per cent of control: 100%
[1]
  kinase still bound, per cent of control: 100%
MAPK1 (human)
  kinase still bound, per cent of control: 99%
GAK (human)
  kinase still bound, per cent of control: 92%
MYLK2 (human)
  kinase still bound, per cent of control: 13%
NEK11 (human)
  kinase still bound, per cent of control: 99%
IRAK1 (human)
  kinase still bound, per cent of control: 13%
ACVR2A (human)
  kinase still bound, per cent of control: 100%
EPHA3 (human)
  kinase still bound, per cent of control: 67%
PRKD1 (human)
  kinase still bound, per cent of control: 100%
CLK4 (human)
  kinase still bound, per cent of control: 93%
[2]
  kinase still bound, per cent of control: 81%
CSF1R (human)
  kinase still bound, per cent of control: 8.6%
RIPK2 (human)
  kinase still bound, per cent of control: 99%
INSRR (human)
  kinase still bound, per cent of control: 100%
STK32A (human)
  kinase still bound, per cent of control: 78%
[3]
  kinase still bound, per cent of control: 93%
PHKG2 (human)
  kinase still bound, per cent of control: 89%
EPHB3 (human)
  kinase still bound, per cent of control: 100%
TGFBR2 (human)
  kinase still bound, per cent of control: 64%
RIOK1 (human)
  kinase still bound, per cent of control: 100%
[4]
  kinase still bound, per cent of control: 90%
[5]
  kinase still bound, per cent of control: 90%
GRK1 (human)
  kinase still bound, per cent of control: 100%
PRPF4B (human)
  kinase still bound, per cent of control: 100%
[6]
  kinase still bound, per cent of control: 95%
MAPK8 (human)
  kinase still bound, per cent of control: 0%
[7]
  kinase still bound, per cent of control: 100%
FLT3 (human)
  kinase still bound, per cent of control: 77%
NLK (human)
  kinase still bound, per cent of control: 70%
